Where “and” joins values, the source holds several entries; their conditions need not be identical. Identical values can stand only once. Toxic doses and inconclusive results are not listed. The calls were made as follows: active = survival T/C of 150% or more; inactive = T/C below 125% in these data.
Tested on: P388 leukemia ip, CD2F1 mice, survival T/C
Assay: NCI In Vivo Anticancer Drug Screen. Data for tumor model P388 Leukemia (intraperitoneal) in CD2F1 (CDF1) mice
Details: endpoint: median survival time, higher = longer survival
Summary of the method: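 Mice carrying the transplanted tumor received test compound or vehicle. Survival was recorded in each group, and the value is the treated-group measurement divided by that of the vehicle-treated control group.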

[1] = dose: 50.0 mg/kg/injection, schedule: Q01DX005 (ip), vehicle: saline with Tween-80
[2] = dose: 100.0 mg/kg/injection, schedule: Q01DX005 (ip), vehicle: saline with Tween-80
[3] = dose: 200.0 mg/kg/injection, schedule: Q01DX005 (ip), vehicle: saline with Tween-80
[4] = dose: 50.0 mg/kg/injection, schedule: Q01DX005 (ip), vehicle: Klucel (hydroxypropylcellulose) (HPC)
[5] = dose: 100.0 mg/kg/injection, schedule: Q01DX005 (ip), vehicle: Klucel (hydroxypropylcellulose) (HPC)
[6] = dose: 200.0 mg/kg/injection, schedule: Q01DX005 (ip), vehicle: Klucel (hydroxypropylcellulose) (HPC)
[7] = dose: 50.0 mg/kg/injection, schedule: Q01DX009 (ip), vehicle: saline with Tween-80
[8] = dose: 100.0 mg/kg/injection, schedule: Q01DX009 (ip), vehicle: saline with Tween-80
[9] = dose: 100.0 mg/kg/injection, schedule: Q04DX003 (ip), vehicle: saline
[10] = dose: 200.0 mg/kg/injection, schedule: Q04DX003 (ip), vehicle: saline
[11] = dose: 400.0 mg/kg/injection, schedule: Q04DX003 (ip), vehicle: saline
[12] = dose: 60.0 mg/kg/injection, schedule: Q01DX005 (ip), vehicle: Klucel (hydroxypropylcellulose) (HPC)
[13] = dose: 200.0 mg/kg/injection, schedule: Q01DX009 (ip), vehicle: saline with Tween-80
[14] = dose: 60.0 mg/kg/injection, schedule: Q01DX005 (ip), vehicle: saline with Tween-80
[15] = dose: 120.0 mg/kg/injection, schedule: Q01DX005 (ip), vehicle: saline with Tween-80
[16] = dose: 240.0 mg/kg/injection, schedule: Q01DX005 (ip), vehicle: saline with Tween-80

Measured: T/C

Cc1cc(N/N=C(\c2ccccc2)c2ccccn2)nc2ccccc12
inactive: [1] 104 % of control | [2] 103 % of control | [3] 94 % of control

Cn1cnc(=O)c2n[nH]nc21
inactive: [4] 100 % of control | [5] 100 % of control | [6] 87 % of control

C=CCn1c(-c2cccc(O)c2)n[nH]c1=S
inactive: dose: 25.0 mg/kg/injection, schedule: Q01DX009 (ip), vehicle: saline with Tween-80 104 % of control | [7] 115 % of control | [8] 96 % of control

CCCCN(C(C)=O)c1nc2ccccc2n1C
inactive: [9] 97 % of control | [10] 98 % of control | [11] 95 % of control

COc1ccc(C)cc1N=NC1C(=O)N(C(=O)CC(=O)Nc2cccc(C)c2)N=C1C (configuration not stated)
inactive: [12] 95 % of control | dose: 120.0 mg/kg/injection, schedule: Q01DX005 (ip), vehicle: Klucel (hydroxypropylcellulose) (HPC) 89 % of control | dose: 240.0 mg/kg/injection, schedule: Q01DX005 (ip), vehicle: Klucel (hydroxypropylcellulose) (HPC) 90 % of control

N#CC1CC=CCN1CCc1ccccc1 (configuration not stated)
inactive: dose: 12.5 mg/kg/injection, schedule: Q01DX005 (ip), vehicle: other 101 % of control | dose: 25.0 mg/kg/injection, schedule: Q01DX005 (ip), vehicle: other 101 % of control | dose: 50.0 mg/kg/injection, schedule: Q01DX005 (ip), vehicle: other 111 % of control | dose: 50.0 mg/kg/injection, schedule: Q01DX005 (ip), vehicle: saline + Tween-80 + alcohol 116 % of control

O=C(O)C1NCCC1Oc1ccccc1 (configuration not stated)
inactive: [4] 99 % of control | [5] 104 % of control | [6] 100 % of control

[N-]=[N+]=CC(=O)CCC(NC(=O)OCc1ccccc1)C(=O)OCc1ccccc1 (configuration not stated)
inactive: dose: 0.78 mg/kg/injection, schedule: Q01DX005 (ip), vehicle: Klucel (hydroxypropylcellulose) (HPC) 102 % of control | dose: 1.56 mg/kg/injection, schedule: Q01DX005 (ip), vehicle: Klucel (hydroxypropylcellulose) (HPC) 110 % of control | dose: 3.13 mg/kg/injection, schedule: Q01DX005 (ip), vehicle: Klucel (hydroxypropylcellulose) (HPC) 101 % of control | dose: 6.25 mg/kg/injection, schedule: Q01DX005 (ip), vehicle: Klucel (hydroxypropylcellulose) (HPC) 104 % of control | dose: 12.5 mg/kg/injection, schedule: Q01DX005 (ip), vehicle: Klucel (hydroxypropylcellulose) (HPC) 99 % of control and 101 % of control and 113 % of control | dose: 25.0 mg/kg/injection, schedule: Q01DX005 (ip), vehicle: Klucel (hydroxypropylcellulose) (HPC) 110 % of control and 120 % of control | dose: 36.0 mg/kg/injection, schedule: Q01DX005 (ip), vehicle: Klucel (hydroxypropylcellulose) (HPC) 107 % of control | [12] 120 % of control
active: dose: 278.0 mg/kg/injection, schedule: Q01DX005 (ip), vehicle: Klucel (hydroxypropylcellulose) (HPC) 152 % of control

Cc1cccc(C)c1-n1c(C)nc2c(c(C)c(C)n2-c2ccccc2)c1=N
inactive: [4] 101 % of control | [5] 94 % of control

O=NN(c1ccccc1)c1ccccc1
inactive: [7] 101 % of control | [8] 100 % of control | [13] 98 % of control

C=C(C)C1CCC2(C)CC3C(=C)CC(O)C(O)C3(C)CCC12 (configuration not stated)
inactive: dose: 4.0 mg/kg/injection, schedule: Q01DX009 (ip), vehicle: Klucel (hydroxypropylcellulose) (HPC) 104 % of control | dose: 8.0 mg/kg/injection, schedule: Q01DX009 (ip), vehicle: Klucel (hydroxypropylcellulose) (HPC) 101 % of control | dose: 16.0 mg/kg/injection, schedule: Q01DX009 (ip), vehicle: Klucel (hydroxypropylcellulose) (HPC) 101 % of control | dose: 32.0 mg/kg/injection, schedule: Q01DX009 (ip), vehicle: Klucel (hydroxypropylcellulose) (HPC) 104 % of control

Cc1cccc(C)c1NC(=O)/C(Cl)=C1/Sc2ccccc2NC1=O
inactive: [1] 105 % of control | [2] 97 % of control | [3] 88 % of control

CCNC(=O)OCc1c(COC(=O)NCC)c(-c2ccc(F)cc2)n2c1CCC2
inactive: dose: 3.13 mg/kg/injection, schedule: Q01DX009 (ip), vehicle: distilled water + Tween-80 123 % of control

CC1(C)CC2(OC2c2ccccc2[N+](=O)[O-])C(=O)c2ccccc21 (configuration not stated)
inactive: [8] 100 % of control | [13] 100 % of control | dose: 400.0 mg/kg/injection, schedule: Q01DX009 (ip), vehicle: saline with Tween-80 100 % of control

C(=C/c1cc2cc(C3=NCCN3)ccc2o1)/C=C/c1cc2cc(C3=NCCN3)ccc2o1
inactive: [9] 106 % of control | [10] 104 % of control | [11] 110 % of control

Cc1ccc(CNc2ccccc2)cc1
inactive: dose: 100.0 mg/kg/injection, schedule: Q01DX009 (ip), vehicle: other 100 % of control | dose: 200.0 mg/kg/injection, schedule: Q01DX009 (ip), vehicle: other 100 % of control | dose: 400.0 mg/kg/injection, schedule: Q01DX009 (ip), vehicle: other 100 % of control

CN1CCCN(C(c2ccccc2)c2ccc(Br)cc2)CC1 (configuration not stated)
inactive: dose: 25.0 mg/kg/injection, schedule: Q01DX009 (ip), vehicle: saline 97 % of control | dose: 50.0 mg/kg/injection, schedule: Q01DX009 (ip), vehicle: saline 103 % of control | dose: 100.0 mg/kg/injection, schedule: Q01DX009 (ip), vehicle: saline 101 % of control and 91 % of control

CCOC(=O)C1=C(CC)NN=C(C)C1
inactive: [1] 105 % of control | [2] 103 % of control | [3] 100 % of control

CCCCOCCOS(=O)(=O)c1ccc(C)cc1
inactive: [7] 92 % of control | [8] 96 % of control | [13] 106 % of control

CC(=O)/C(=N/O)C(C)=NCc1ccccc1
inactive: dose: 100.0 mg/kg/injection, schedule: Q01DX009 (ip), vehicle: Klucel (hydroxypropylcellulose) (HPC) 88 % of control

Cc1ccn2ccnc2c1
inactive: dose: 50.0 mg/kg/injection, schedule: Q01DX009 (ip), vehicle: acetone 102 % of control | dose: 100.0 mg/kg/injection, schedule: Q01DX009 (ip), vehicle: acetone 113 % of control

CNc1ncnc2c1cnn2C
inactive: [7] 95 % of control | [9] 104 % of control | [10] 109 % of control

COCn1ccnc1C(=O)c1ccco1
inactive: [7] 103 % of control | [8] 111 % of control | [13] 94 % of control

COc1ccc(C2CC(c3cc(C)cc(Br)c3O)=NO2)cc1 (configuration not stated)
inactive: dose: 100.0 mg/kg/injection, schedule: Q04DX002 (ip), vehicle: saline with Tween-80 93 % of control | dose: 200.0 mg/kg/injection, schedule: Q04DX002 (ip), vehicle: saline with Tween-80 88 % of control | dose: 400.0 mg/kg/injection, schedule: Q04DX002 (ip), vehicle: saline with Tween-80 92 % of control

O=C(CCCC(=O)Nc1cccc2[nH]c3ccccc3c(=O)c12)Nc1cccc2[nH]c3ccccc3c(=O)c12
inactive: [14] 100 % of control | [15] 88 % of control | [16] 100 % of control

CCOC(=O)n1oc2c(Br)cc(Br)cc2c1=O
inactive: dose: 50.0 mg/kg/injection, schedule: Q04DX002 (ip), vehicle: Klucel (hydroxypropylcellulose) (HPC) 105 % of control | dose: 100.0 mg/kg/injection, schedule: Q04DX002 (ip), vehicle: Klucel (hydroxypropylcellulose) (HPC) 99 % of control | dose: 200.0 mg/kg/injection, schedule: Q04DX002 (ip), vehicle: Klucel (hydroxypropylcellulose) (HPC) 101 % of control

O=S(=O)(OC1=C/[C@H](S(=O)(=O)c2ccccc2)/C=C\[C@H](S(=O)(=O)c2ccccc2)/C=C\1)c1ccccc1
inactive: [14] 97 % of control | [15] 93 % of control | [16] 91 % of control

COC(SC)c1cc(-c2c(Cl)cccc2Cl)no1 (configuration not stated)
inactive: [14] 93 % of control | [15] 103 % of control | [16] 107 % of control

CSCSCC(CO)NC(=O)/C=C/c1c[nH]c(=O)[nH]c1=O (configuration not stated)
inactive: dose: 1.0 mg/kg/injection, schedule: Q01DX009 (ip), vehicle: other 92 % of control | dose: 2.0 mg/kg/injection, schedule: Q01DX009 (ip), vehicle: other 97 % of control | dose: 4.0 mg/kg/injection, schedule: Q01DX009 (ip), vehicle: other 98 % of control | dose: 8.0 mg/kg/injection, schedule: Q01DX009 (ip), vehicle: other 93 % of control | dose: 16.0 mg/kg/injection, schedule: Q01DX009 (ip), vehicle: other 102 % of control | dose: 32.0 mg/kg/injection, schedule: Q01DX009 (ip), vehicle: other 107 % of control
